According to patent US20230277698A1, “SILICON-CONTAINING LIGAND COMPOUNDS” (Technische Universität München, priority 2020, published 2023):

Assay: Octanol-water partition coefficient
Type: physicochemical
Settings: 177Lu-labelled; n-octanol/PBS pH 7.4; n=6
Experimental: Approximately 1 MBq of the labelled tracer was dissolved in 1 mL of a 1:1 mixture (v/v) of PBS (pH 7.4) and n-octanol in a reaction vial (1.5 mL). After vigorous mixing of the suspension for 3 minutes at room temperature, the vial was centrifuged at 15000 g for 3 minutes (Biofuge 15, Heraeus Sepatech, Osterode, Germany) and 100 μL aliquots of both layers were measured in a gamma counter. The experiment was repeated at least six times.
FIG. 5 and the following table summarize log PO/W values of the synthesized radiolabeled ^177Lu-PSMA ligand compounds and ^177Lu-references (n=6).

`CC(C)(C)[Si](O)(c1ccc(C(=O)NC[C@@H](NC(=O)CC[C@@H](C(=O)O)N2CCN(CC(=O)O)CCN(CC(=O)O)CCN(CC(=O)O)CC2)C(=O)N[C@H](CCCCNC(=O)CCC(=O)NCCC[C@@H](NC(=O)CC[C@H](NC(=O)N[C@@H](CCC(=O)O)C(=O)O)C(=O)O)C(=O)O)C(=O)O)cc1)C(C)(C)C` [7.3-SiOH] and `CC(C)(C)[Si](F)(c1ccc(C(=O)NC[C@@H](NC(=O)CC[C@@H](C(=O)O)N2CCN(CC(=O)O)CCN(CC(=O)O)CCN(CC(=O)O)CC2)C(=O)N[C@H](CCCCNC(=O)CCC(=O)NCCC[C@@H](NC(=O)CC[C@H](NC(=O)N[C@@H](CCC(=O)O)C(=O)O)C(=O)O)C(=O)O)C(=O)O)cc1)C(C)(C)C` [rhPSMA-7.3, reference compound] are within 0.2 log units of each other in “Log PO/W” value: −3.9 ± 0.1 for the first, −3.8 ± 0.1 for the second.

`CC(C)(C)[Si](O)(c1ccc(C(=O)NC[C@@H](NC(=O)CC[C@@H](C(=O)O)N2CCN(CC(=O)O)CCN(CC(=O)O)CCN(CC(=O)O)CC2)C(=O)N[C@H](CO)C(=O)NCCC(=O)NCCC(=O)NCCC[C@@H](NC(=O)CC[C@H](NC(=O)N[C@@H](CCC(=O)O)C(=O)O)C(=O)O)C(=O)O)cc1)C(C)(C)C` [C007-SiOH] and `CC(C)(C)[Si](O)(c1ccc(C(=O)NC[C@@H](NC(=O)CC[C@@H](C(=O)O)N2CCN(CC(=O)O)CCN(CC(=O)O)CCN(CC(=O)O)CC2)C(=O)NCC(=O)N[C@@H](CCCCNC(=O)CCC(=O)NCCC[C@@H](NC(=O)CC[C@H](NC(=O)N[C@@H](CCC(=O)O)C(=O)O)C(=O)O)C(=O)O)C(=O)O)cc1)C(C)(C)C` [E102-SiOH] are within 0.2 log units of each other in “Log PO/W” value: −4.28 ± 0.09 for the first, −4.14 ± 0.08 for the second.

`CC(C)(C)[Si](O)(c1ccc(C(=O)NC[C@@H](NC(=O)CCCCCNC(=O)CCCNC(=O)CC[C@@H](NC(=O)CCC(NC(=O)N[C@@H](CCC(=O)O)C(=O)O)C(=O)O)C(=O)O)C(=O)NCC(=O)N[C@@H](CCCCNC(=O)CC[C@@H](C(=O)O)N2CCN(CC(=O)O)CCN(CC(=O)O)CCN(CC(=O)O)CC2)C(=O)O)cc1)C(C)(C)C` (stereo partly drawn) [E104-SiOH] and `CC(C)(C)[Si](O)(c1ccc(C(=O)N[C@H](CCC(=O)NC[C@@H](NC(=O)CC[C@@H](C(=O)O)N2CCN(CC(=O)O)CCN(CC(=O)O)CCN(CC(=O)O)CC2)C(=O)NCCCCCC(=O)NCCC[C@@H](NC(=O)CC[C@H](NC(=O)N[C@@H](CCC(=O)O)C(=O)O)C(=O)O)C(=O)O)C(=O)O)cc1)C(C)(C)C` [P105-SiOH] are within 0.2 log units of each other in “Log PO/W” value: −3.77 ± 0.16 for the first, −3.94 ± 0.07 for the second.

Going from `CC(C)(C)[Si](O)(c1ccc(C[N+](C)(C)CC(=O)NCCC[C@@H](NC(=O)CC[C@@H](C(=O)O)N2CCN(CC(=O)O)CCN(CC(=O)O)CCN(CC(=O)O)CC2)C(=O)NCCCCCC(=O)NCCC[C@@H](NC(=O)CC[C@H](NC(=O)N[C@@H](CCC(=O)O)C(=O)O)C(=O)O)C(=O)O)cc1)C(C)(C)C` [P110-SiOH] to `CC(C)(C)[Si](F)(c1ccc(C(=O)NC[C@@H](NC(=O)CN2CCN(CC(=O)O)CCN(CC(=O)O)CCN(CC(=O)O)CC2)C(=O)N[C@H](CCCCNC(=O)CCC(=O)NCCC[C@@H](NC(=O)CC[C@H](NC(=O)N[C@@H](CCC(=O)O)C(=O)O)C(=O)O)C(=O)O)C(=O)O)cc1)C(C)(C)C` [rhPSMA-10, reference compound], the “Log PO/W” value rises from −4.11 ± 0.07 to −3.6 ± 0.1.

In the case of `O=C(O)CC[C@H](NC(=O)N[C@@H](CCCCNC(=O)[C@H](Cc1ccc2ccccc2c1)NC(=O)[C@H]1CC[C@H](CNC(=O)CN2CCN(CC(=O)O)CCN(CC(=O)O)CCN(CC(=O)O)CC2)CC1)C(=O)O)C(=O)O` [PSMA-617, reference compound], the “Log PO/W” value is reported as −4.1 ± 0.1.
